Data: ChEMBL document CHEMBL5316354, “From Natural Sources to Synthetic Derivatives: The Allyl Motif as a Powerful Tool for Fragment-Based Design in Cancer Treatment” (J Med Chem, 2023)

Legend:
MCF7 [1] = test: Antitumor activity against human MCF7 cells assessed as cell growth inhibition incubated for 48 hrs; format: functional, cell-based; conditions: MCF7, 48 h
SGC-7901 = test: Antitumor activity against human SGC-7901 cells assessed as cell growth inhibition; format: functional, cell-based
BGC-823 [2] = test: Antitumor activity against human BGC-823 cells assessed as cell growth inhibition; format: functional, cell-based
PC-3 = test: Antitumor activity against human PC-3 cells assessed as cell growth inhibition; format: functional, cell-based
MCF7 [3] = test: Antitumor activity against human MCF7 cells assessed as cell growth inhibition; format: functional, cell-based
DU-145 = test: Antitumor activity against human DU-145 cells assessed as cell growth inhibition; format: functional, cell-based
HeLa = test: Antitumor activity against human HeLa cells assessed as cell growth inhibition; format: functional, cell-based
SW480 = test: Antitumor activity against human SW480 cells assessed as inhibition of cell growth incubated for 24 to 48 hrs; format: functional, cell-based
NCI-H23 = test: Antitumor activity against human NCI-H23 cells assessed as cell growth inhibition; format: functional, cell-based
SW-620 = test: Antitumor activity against human SW620 cells assessed as cell growth inhibition; format: functional, cell-based
MCF7 [4] = test: Antitumor activity against human MCF7 expressing HER-2 cells assessed as cell growth inhibition; format: functional, cell-based
MCF7 [5] = test: Antitumor activity against human MCF7 cells assessed as decrease in cell viability; format: functional, cell-based
BGC-823 [6] = test: Antitumor activity against human BGC-823 cells xenografted in BALB/c nude mouse assessed as tumor growth inhibition at 20 mg/kg, ip administered for 32 days relative to control; format: functional; conditions: BGC-823, 768 h, time 32 day
BGC-823 [7] = test: Antitumor activity against human BGC-823 cells xenografted in BALB/c nude mouse assessed as tumor growth inhibition at 40 mg/kg, ip administered for 32 days relative to control; format: functional; conditions: BGC-823, 768 h, time 32 day
BGC-823 [8] = test: Antitumor activity against human BGC-823 cells xenografted in BALB/c nude mouse assessed as tumor growth inhibition at 30 mg/kg, ip administered for 32 days relative to control; format: functional; conditions: BGC-823, 768 h, time 32 day
MDA-MB-231 [9] = test: Antitumor activity against human MDA-MB-231 cells assessed as cell viability at 50 uM relative to control; format: functional; conditions: read-out: Activity
MG-63 = test: Antiproliferative activity against human MG-63 cells assessed as growth inhibition by MTT assay; format: functional
Ca9-22 [10] = test: Antitumor activity against human Ca9-22 cells assessed as cellular proliferation at 30 uM; format: functional
Ca9-22 [11] = test: Antitumor activity against human Ca9-22 cells assessed as cellular proliferation at 3 uM; format: functional
Rattus norvegicus [12] = test: Immunomodulatory activity in testosterone propionate induced benign prostatic hyperplasia Wistar rat model assessed as reduction in serum testosterone level at 50 mg/kg, po relative to control; format: functional
Rattus norvegicus [13] = test: Immunomodulatory activity in testosterone propionate induced benign prostatic hyperplasia Wistar rat model assessed as reduction in prostate weight at 50 mg/kg, po relative to control; format: functional
Rattus norvegicus [14] = test: Immunomodulatory activity in testosterone propionate induced benign prostatic hyperplasia Wistar rat model assessed as reduction in DHT level at 50 mg/kg, po relative to control; format: functional
MCF7 [15] = test: Antitumor activity against human MCF7 cells assessed as inhibition of cell proliferation in the presence of 1mM of eugenol; format: functional, cell-based
MCF7 [16] = test: Antitumor activity against human MCF7 cells assessed as inhibition of cell proliferation; format: functional, cell-based
MDA-MB-231 [17] = test: Antitumor activity against human MDA-MB-231 cells assessed as cell viability at 0.5 uM relative to control; format: functional; conditions: read-out: Activity
HepG2 [18] = test: Cytotoxicity against human HepG2 cells; format: functional
HepG2 [19] = test: Antitumor activity against human HepG2 cells assessed as reduction in cell growth; format: functional, cell-based
SK-BR-3 [20] = test: Antitumor activity against human SK-BR-3 cells assessed as inhibition of cell proliferation at 40 uM relative to control; format: functional
SK-BR-3 [21] = test: Antitumor activity against human SK-BR-3 cells assessed as inhibition of cell proliferation at 60 uM relative to control; format: functional
MDA-MB-231 [22] = test: Antitumor activity against human MDA-MB-231 cells assessed as inhibition of cell proliferation at 60 uM relative to control; format: functional
MDA-MB-231 [23] = test: Antitumor activity against human MDA-MB-231 cells assessed as inhibition of cell proliferation at 40 uM relative to control; format: functional
Rattus norvegicus [24] = test: Immunomodulatory activity in testosterone propionate induced benign prostatic hyperplasia Wistar rat model assessed as reduction in serum testosterone level at 5 mg/kg, po relative to control; format: functional
Rattus norvegicus [25] = test: Immunomodulatory activity in testosterone propionate induced benign prostatic hyperplasia Wistar rat model assessed as reduction in DHT level at 5 mg/kg, po relative to control; format: functional
Rattus norvegicus [26] = test: Immunomodulatory activity in testosterone propionate induced benign prostatic hyperplasia Wistar rat model assessed as reduction in prostate weight at 5 mg/kg, po relative to control; format: functional
SK-BR-3 [27] = test: Antitumor activity against human SK-BR-3 cells assessed as cell growth inhibition; format: functional, cell-based
HL-60 = test: Antitumor activity against human HL-60 cells assessed as cell growth inhibition; format: functional, cell-based
NCI-H226 = test: Antitumor activity against human NCI-H226 cells assessed as cell growth inhibition; format: functional, cell-based
[28] = Antitumor activity against human Osteosarcoma cells assessed as increase in intracellular calcium concentration; format: functional, cell-based; conditions: Osteosarcoma cell
[29] = Antitumor activity against human OC2 cells assessed as increase in cell proliferation at 10 uM relative to control; format: functional

## C/C=C/c1ccc(O)c(OC)c1
MCF7 [1]
  IC50: 11.4 µM

## C=CCc1cc(/C=C2\CC/C(=C\c3ccc(O)c(CC=C)c3)C2=O)ccc1O
SGC-7901
  IC50: 6.9 µM
BGC-823 [2]
  IC50: 7.1 µM

## C=CCOc1cccc2c1C(=O)C=C(C)C2=O
PC-3
  IC50: 32.2 µM

## Cn1[se]c2ccccc2c1=O
MCF7 [3]
  IC50: 32.7 µM
DU-145
  IC50: 30.2 µM

## CCCCn1[se]c2ccccc2c1=O
MCF7 [3]
  IC50: 13.8 µM
DU-145
  IC50: 28 µM

## CC(C)CCn1[se]c2ccccc2c1=O
MCF7 [3]
  IC50: 29 µM

## O=c1c2ccccc2[se]n1C1CCCCC1
MCF7 [3]
  IC50: 7.3 µM
DU-145
  IC50: 5.7 µM

## CCC[C@@H](Cc1c[nH]c2ccccc12)NS(=O)(=O)c1c(C(C)C)cc(C(C)C)cc1C(C)C
HeLa
  IC50: 30.8 µM

## C=CCc1cc(/C=C2\CN(Cc3ccccc3)C/C(=C\c3ccc(O)c(CC=C)c3)C2=O)ccc1O
SGC-7901
  IC50: 6 µM
BGC-823 [2]
  IC50: 6.9 µM

## C=CCSC[C@H](NC(=O)C(C)c1ccc2cc(OC)ccc2c1)C(=O)OCC (stereo partly drawn)
SW480
  IC50: 31 µM

## C=CCc1cccc(/C=N/NC(=O)Cn2cnc3ccc([N+](=O)[O-])cc3c2=O)c1O
NCI-H23
  IC50: 0.03 µM
SW-620
  IC50: 0.07 µM
PC-3
  IC50: 0.07 µM

## C=CCNC(=S)NC(=O)c1ccccc1
MCF7 [3]
  IC50: 1.5 µM
MCF7 [4]
  IC50: 0.6 µM

## C=CCSCC(N)C(=O)OOc1ccc(CNC(=O)CCCCCCCC)cc1OC (stereo not drawn)
MCF7 [5]
  IC50: 66 µM

## C=CCSC[C@H](NC(=O)Cc1ccccc1Nc1c(Cl)cccc1Cl)C(=O)OCC
SW480
  IC50: 31 µM

## C=CCSC[C@H](NC(=O)c1ccccc1O)C(=O)OCC
SW480
  IC50: 31 µM

## C=CCSSSCC=C [ALLITRIDIN]
BGC-823 [6]
  inhibition in vivo at 20 mg/kg: 38%
BGC-823 [7]
  inhibition in vivo at 40 mg/kg: 57%
BGC-823 [8]
  inhibition in vivo at 30 mg/kg: 50%

## C/C=C/c1ccc(OC)cc1 [ANETHOLE]
MDA-MB-231 [9]
  viability at 50 µM: 60%
MG-63
  GI50: 60.2 µM
Ca9-22 [10]
  Activity: 5.2%
Ca9-22 [11]
  Activity: 42.7%

## C=CCSCC=C [DIALLYL SULFIDE]
Rattus norvegicus [12]
  inhibition in vivo at 50 mg/kg: 68%
Rattus norvegicus [13]
  inhibition in vivo at 50 mg/kg: 60%
Rattus norvegicus [14]
  inhibition in vivo at 50 mg/kg: 75%

## COc1cccc2c1C(=O)c1c(O)c3c(c(O)c1C2=O)C[C@@](O)(C(=O)CO)C[C@@H]3O[C@H]1C[C@H](N)[C@H](O)[C@H](C)O1 [DOXORUBICIN]
MCF7 [15]
  IC50: 0.088 µM
MCF7 [16]
  IC50: 0.5 µM
SGC-7901
  IC50: 36.9 µM
BGC-823 [2]
  IC50: 38.2 µM
MDA-MB-231 [17]
  viability at 0.5 µM: 40%

## C=C1[C@H](CO)[C@@H](O)C[C@@H]1n1cnc2c(=O)[nH]c(N)nc21 [ENTECAVIR ANHYDROUS]
HepG2 [18]
  CC50: 30 µM
HepG2 [19]
  EC50: 0.00375 µM

## C=CCc1ccc(O)c(OC)c1 [EUGENOL]
SK-BR-3 [20]
  inhibition at 40 µM: > 90%
SK-BR-3 [21]
  inhibition at 60 µM: > 90%
MCF7 [1]
  IC50: > 1500 µM
MDA-MB-231 [22]
  inhibition at 60 µM: > 90%
MDA-MB-231 [23]
  inhibition at 40 µM: > 90%

## CC(C)(C)NC(=O)[C@H]1CC[C@H]2[C@@H]3CC[C@H]4NC(=O)C=C[C@]4(C)[C@H]3CC[C@]12C [FINASTERIDE]
Rattus norvegicus [24]
  inhibition in vivo at 5 mg/kg: 55%
Rattus norvegicus [25]
  inhibition in vivo at 5 mg/kg: 52%
Rattus norvegicus [26]
  inhibition in vivo at 5 mg/kg: 53%

## COC1=C2C[C@@H](C)C[C@H](OC)[C@H](O)[C@@H](C)/C=C(\C)[C@H](OC(N)=O)[C@@H](OC)/C=C\C=C(/C)C(=O)NC(=CC1=O)C2=O [GELDANAMYCIN]
MCF7 [3]
  IC50: 0.011 µM
SK-BR-3 [27]
  IC50: 0.004 µM

## CCCCCCCCC(=O)NCc1ccc(O)c(OC)c1 [NONIVAMIDE]
MCF7 [5]
  IC50: 2240 µM

## C=CCc1cccc(/C=N/NC(=O)CN2CCN(Cc3ccccc3)CC2)c1O [PAC-1]
MCF7 [3]
  IC50: > 75 µM
HL-60
  IC50: 0.92 µM
NCI-H226
  IC50: 0.35 µM

## C=CCc1ccc2c(c1)OCO2 [SAFROLE]
[28]
  EC50: 450 µM
[29]
  Activity: 50%

## C=CCNC1=C2C[C@@H](C)C[C@H](OC)[C@H](O)[C@@H](C)/C=C(\C)[C@H](OC(N)=O)[C@@H](OC)/C=C\C=C(/C)C(=O)NC(=CC1=O)C2=O [TANESPIMYCIN]
MCF7 [3]
  IC50: 0.005 µM
SK-BR-3 [27]
  IC50: 0.004 µM
